Results as given in patent publication US20240408170A1, “COMPOSITION FOR DECOMPOSITION OF TRYPSIN OR TMPRSS2” (Riken, priority 2021, published 2024).

How the values were obtained:
recombinant mouse PRSS2 [1] = molecular target: T1, recombinant mouse PRSS2 (Mus musculus, UniProt P07146); experiment: Trypsin decomposition in vitro by bacteria (western blot); format: biochemical
T1 construct: purchased Sino Biological, Inc. 50383-M08H
T1 sequence (P07146 24-246): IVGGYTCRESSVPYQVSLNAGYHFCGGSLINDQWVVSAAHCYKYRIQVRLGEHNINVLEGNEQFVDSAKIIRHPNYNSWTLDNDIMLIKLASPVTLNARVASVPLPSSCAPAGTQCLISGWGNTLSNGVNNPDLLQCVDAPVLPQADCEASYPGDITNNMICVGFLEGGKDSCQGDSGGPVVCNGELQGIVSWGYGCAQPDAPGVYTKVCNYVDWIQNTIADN
Experimental: (§1) Mouse faecal samples were suspended and diluted 50-fold with phosphate buffered saline (PBS) to which a protease inhibitor cocktail (Roche) was added. Subsequently, the suspended sample was centrifuged at 15,000×g for 10 minutes at 4° C., and the supernatant was subjected to western blot. Mouse pancreatic tissue was rapidly frozen in liquid nitrogen. Proteins were extracted by TRIzol Reagent (Thermo Fisher Scientific K.K.), and the final protein concentration was adjusted to 4 μg/μL. For SDS-PAGE and blotting, Novex (registered trademark) NuPAGE (registered trademark) SDS-PAGE Gel system (Thermo Fisher Scientific K.K.) and iBlot™ 2 Dry Blotting System (Thermo Fisher Scientific K.K.) were used according to the manufacturer's instructions.
(§2) The bacteria cultured overnight were incubated with recombinant mouse trypsin (final concentration: 1 μg/mL) for 1 hour or with human trypsin (final concentration: 20 μg/mL) for 4 hours. Recombinant trypsin isoforms used were as follows: recombinant mouse PRSS2 (50383-M08H, Sino Biological, Inc.), recombinant human PRSS1 (LS-G135640), recombinant human PRSS2 (LS-G20167), and recombinant human PRSS3 (His-tag) (NBP2-52220).
In some experiments, recombinant mouse PRSS2 was first treated with one of the following trypsin inhibitors for 30 minutes before incubation with a P. clara culture solution. AEBSF (Sigma-Aldrich, final concentration: 2 mM), Leupeptin (Sigma-Aldrich, final concentration: 100 μM), and TLCK (Abcam plc., final concentration: 100 μM).
In some experiments, P. clara was cultured overnight in the presence of Tunicamycin (Sigma-Aldrich, final concentration: 10 μg/mL), 2-Fluoro-L-fucose (Cayman Chemical Company, final concentration: 250 μM), or the corresponding DMSO control, before incubation with recombinant mouse PRSS2.
In the experiment of evaluating the effect of Ca^2+, P. clara was cultured in a low Ca^2+ mGAM medium supplemented with or without 1 mM of Ca^2+, before incubation with recombinant mouse PRSS2. In the experiment in which the supernatant of P. clara was used, P. clara cultured overnight was filtered through a sterilization filter unit formed using a PVDF film having a pore size of 0.22 μm.

recombinant human PRSS1 = molecular target: T2, recombinant human PRSS1 (Homo sapiens, UniProt P07477); experiment: Human trypsin decomposition in vitro by P. clara (western blot); format: biochemical
T2 construct: purchased LS-G135640
Experimental: as §1, §2

recombinant human PRSS2 = molecular target: T3, recombinant human PRSS2 (Homo sapiens, UniProt P07478); experiment: as above; format: biochemical
T3 construct: purchased LS-G20167
Experimental: as §1, §2

recombinant mouse PRSS2 [2] = molecular target: T1, recombinant mouse PRSS2; experiment: Binding of Alexa Fluor 488-labeled rmPRSS2 to the surface of bacteria (confocal microscope)
Experimental: Recombinant mouse PRSS2 was labeled with Alexa Fluor™ 488 using an Alexa Fluor™ 488 Antibody Labeling Kit (Δ20181, Thermo Fisher Scientific K.K.), and was pretreated with an AEBSF inhibitor (150 μg/mL rmPRSS2 with 20 mM AEBSF).
Mouse PRSS2 labeled with Alexa Fluor™ 488 was incubated in an anaerobic chamber for 20 minutes with bacteria cultured at a final concentration of 5 μg/mL. The mixture was centrifuged, washed once with PBS, and then resuspended in PBS. A Leica TCS SP8 confocal microscope was used for capturing a confocal image.

FITC-casein substrate = experiment: Protease activity assay (cleavage of FITC-labeled casein); format: biochemical
Experimental: The protease activity of the P. clara culture solution, the P. clara culture solution supernatant, the recombinant 00502 protein, and the recombinant 005009 protein were measured using Pierce™ Fluorescent Protease Assay Kit (#23266, Thermo Fisher Scientific K.K.) according to the manufacturer's protocol.
Using PerkinElmer 2030 Multilabel Reader equipped with an excitation filter and a fluorescence filter of fluorescein (485/538 nm), an increase in total fluorescence due to digestion of the FITC-casein substrate to smaller fluorescein-labeled fragments was detected. The protease activity was measured as a change in relative fluorescence units (RFUs).

trypsin = molecular target: T4, trypsin (Mus musculus, UniProt P07146); experiment: Substrate specificity: ex vivo incubation of GF mouse cecal contents with P. clara, peptidome analysis by LC-MS; format: biochemical; details: 7614 peptides derived from 276 proteins, cecal contents of GF mice
T4 construct: the anionic trypsin protease was abundantly present in the cecal contents and the faeces; from tissue; host or cells: faeces and cecal contents of germ-free / gnotobiotic mice
T4 sequence (P07146 24-246): T1 sequence (P07146 24-246)
Experimental: An acetonitrile (ACN) containing 0.1% trifluoroacetic acid (TFA) was added to the cecal contents and dried with a centrifugal evaporator. Acetone was added to the dried sample, and a low-molecular-weight compound that was soluble in lipids was extracted with a water bath type sonicator. Thereafter, centrifugation was performed at 15,000×g for 15 minutes at 4° C.
After removing the supernatant, 70% ACN-HCl was added to the precipitate, and the peptides were redissolved in a water bath type sonicator. Thereafter, centrifugation was performed at 15,000×g for 15 minutes at 4° C. Subsequently, the supernatant was transferred to a new tube and dried with a centrifugal evaporator. Subsequently, the dried sample was redissolved in 100 mM Tris-HCl containing a protease inhibitor, and then treated with 10 mM dithiothreitol at 50° C. for 30 minutes. Thereafter, alkylation was carried out with 30 mM iodoacetamide for 30 minutes at room temperature in a dark place. Thereafter, acidification was carried out with 0.5% trifluoroacetic acid (final concentration). The acidified sample was desalted with MonoSpin C18 (GL Sciences Inc.). […]
The peptides eluted from the column were analyzed by DDA-MS using Q Exactive HF-X (Thermo Fisher Scientific K.K.). […]

T3 sequence (P07478 24-247): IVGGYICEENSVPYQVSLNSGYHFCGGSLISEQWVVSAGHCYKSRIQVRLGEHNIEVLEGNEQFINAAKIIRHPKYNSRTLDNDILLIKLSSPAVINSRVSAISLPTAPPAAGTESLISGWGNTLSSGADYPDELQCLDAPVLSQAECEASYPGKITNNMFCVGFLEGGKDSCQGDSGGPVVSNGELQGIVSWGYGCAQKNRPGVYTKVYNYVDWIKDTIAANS

Paraprevotella clara [P. clara (strain ID: 1C4)]
reaction rate of trypsin decomposition by P. clara (recombinant mouse PRSS2 [1]): gradually occurs stoichiometrically | dependence of P. clara-mediated trypsin decomposition on divalent cations (recombinant mouse PRSS2 [1]; Ca2+): occurred only in the presence of a sufficient amount of divalent cations | decomposition of rmPRSS2 (western blot) (recombinant mouse PRSS2 [1]; bacteria or culture supernatant incubated with recombinant mouse trypsin): reduced trypsin | decomposition of human trypsin PRSS1 (western blot) (recombinant human PRSS1): can promote the reduction | decomposition of human trypsin PRSS2 (western blot) (recombinant human PRSS2): can promote the reduction | binding of rmPRSS2 to the surface of bacteria (recombinant mouse PRSS2 [2]): accumulate on the surface | protease activity (change in relative fluorescence units) (FITC-casein substrate): no proteolytic activity was detected | substrate specificity: proteins with increase in peptide concentration over time (trypsin): trypsin was only one protein that exhibited a pattern of a clear increase in peptide concentration over time
